The text below walks through data of US4518587A, “Dipeptides of L-5-hydroxytryptophan, processes for their preparation and drugs in which they are present” (S.A. Panmedica, priority 1983, dated 1985).

Like-named read-outs stand apart in the source and are kept apart here. Square brackets hold non-standard residues; d marks the D form. Peptide text beside a SMILES is read from it. Trp(5-OH) = N[C@@H](Cc1c[nH]c2ccc(O)cc12)C(=O)O

The subject of the assay is brain levels of L-5-hydroxytryptophan (L-5-HTP), serotonin (5-HT) and 5-hydroxyindoleacetic acid (5-HIAA). The assay is described as follows: Biochemical analysis of brain levels of L-5-HTP, 5-HT and 5-HIAA one hour after a single dose (technique of CURZON and GREEN). It is filed as in vivo, rats. To be noted: for change in vivo at 25 mg/kg / change in vivo at 50 mg/kg / change in vivo at 10 mg/kg: Rattus norvegicus, 1 h; for change in vivo at 10 mg/kg: read-out: %, relative to the controls, of L-5-HTP at dose of 10 mg/kg. As for the experimental part:
Biochemical analysis of the brain levles of L-5-hydroxytryptophan (L-5-HTP), serotonin (5-HT) and its first metabolite, 5-hydroxyindoleacetic acid (5- HIAA), was carried out one hour after the administration of a single dose to adult rats by the technique of CURZON and GREEN. Three doses were studied, i.e. 10, 25 and 50 mg/kg, 10 animals being used per dose. Table I below indicates the percentage increases in 5-HTP, 5-HT and 5-HIAA relative to the levels found in the control animals: […]

[1] abbreviates: read-out: %, relative to the controls, of 5-HIAA at dose of 25 mg/kg.
Setting [2] is: read-out: %, relative to the controls, of 5-HIAA at dose of 50 mg/kg.
The mark [3] stands for this setting: read-out: %, relative to the controls, of 5-HT at dose of 50 mg/kg.
[4] abbreviates: read-out: %, relative to the controls, of L-5-HTP at dose of 25 mg/kg.
Setting [5] is: brain level, adult rats, single dose 10 mg/kg, one hour after administration, percentage increase relative to control animals.
Setting [6] is: brain level, adult rats, single dose 25 mg/kg, one hour after administration, percentage increase relative to control animals, read-out: %, relative to the controls, of L-5-HTP at dose of 25 mg/kg.
Setting [7] is: brain level, adult rats, single dose 50 mg/kg, one hour after administration, percentage increase relative to control animals, read-out: %, relative to the controls, of 5-HT at dose of 50 mg/kg.
The mark [8] stands for this setting: brain level, adult rats, single dose 25 mg/kg, one hour after administration, percentage increase relative to control animals.
Setting [9] is: brain level, adult rats, single dose 25 mg/kg, one hour after administration, percentage increase relative to control animals, read-out: %, relative to the controls, of 5-HIAA at dose of 25 mg/kg.
Where [10] appears, read: brain level, adult rats, single dose 50 mg/kg, one hour after administration, percentage increase relative to control animals, read-out: %, relative to the controls, of 5-HIAA at dose of 50 mg/kg.
Setting [11] is: brain level, adult rats, single dose 50 mg/kg, one hour after administration, percentage increase relative to control animals, read-out: %, relative to the controls, of L-5-HTP at dose of 50 mg/kg.
The mark [12] stands for this setting: read-out: %, relative to the controls, of L-5-HTP at dose of 50 mg/kg.
The mark [13] stands for this setting: brain level, adult rats, single dose 50 mg/kg, one hour after administration, percentage increase relative to control animals.

`N[C@@H](Cc1c[nH]c2ccc(O)cc12)C(=O)N[C@@H](Cc1ccccc1)C(=O)O` [Example 12, 5-HYDROXY-L-TRYPTOPHYL-L-PHENYLALANINE] (H-[Trp(5-OH)]-Phe-OH): the change in vivo at 10 mg/kg was found to be 170%. Moreover, the change in vivo at 25 mg/kg under setting [1] was found to be 140%. Also, the change in vivo at 50 mg/kg under setting [2] amounted to 180%. In addition, under setting [3], the change in vivo at 50 mg/kg was 25%. For the same molecule, the change in vivo at 25 mg/kg under setting [4] worked out at 500%.
As to `N[C@@H](Cc1c[nH]c2ccc(O)cc12)C(=O)N[C@@H](CCC(=O)O)C(=O)O` [Example 4, 5-Hydroxy-L-tryptophyl-L-glutamic acid] (H-[Trp(5-OH)]-Glu-OH), under setting [5], the change in vivo at 10 mg/kg was found to be 200% and the “%, relative to the controls, of 5-HT at dose of 10 mg/kg” value came to 5%. Moreover, the change in vivo at 25 mg/kg under setting [6] was 550%. Moreover, the change in vivo at 50 mg/kg under setting [7] was 60%. Also, under setting [8], the “%, relative to the controls, of 5-HT at dose of 25 mg/kg” value amounted to 10%.
For `N[C@@H](Cc1c[nH]c2ccc(O)cc12)C(=O)N[C@@H](CO)C(=O)O` [Example 16, L-5-HYDROXYTRYPTOPHYL-L-SERINE] (H-[Trp(5-OH)]-Ser-OH), the change in vivo at 10 mg/kg under setting [5] is 170%. The change in vivo at 25 mg/kg under setting [9] is 30%. The change in vivo at 50 mg/kg is, setting by setting: under setting [10], 150%; under setting [7], 15%; under setting [11], 900%. For the same molecule, the “%, relative to the controls, of 5-HIAA at dose of 10 mg/kg” value under setting [5] was determined as 10%.
For `N[C@@H](Cc1c[nH]c2ccc(O)cc12)C(=O)NCC(=O)O` [Example 19, 5-HYDROXY-L-TRYPTOPHYLGLYCINE] (H-[Trp(5-OH)]-Gly-OH), the change in vivo at 25 mg/kg under setting [9] amounted to 170% and the change in vivo at 25 mg/kg under setting [6] amounted to 700%. Moreover, the change in vivo at 50 mg/kg by setting is: under setting [10], 350%; under setting [7], 30%. For the same molecule, under setting [5], the “%, relative to the controls, of 5-HIAA at dose of 10 mg/kg” value stood at 75%. Further, under setting [5], the “%, relative to the controls, of 5-HT at dose of 10 mg/kg” value came to 30%. The “%, relative to the controls, of 5-HT at dose of 25 mg/kg” value under setting [8] was determined as 12%.
With `NC(=O)[C@@H](N)Cc1c[nH]c2ccc(O)cc12.O` [Example 21, 5-HYDROXY-L-TRYPT[…], HYDRATE], the change in vivo at 10 mg/kg amounted to 125%. Further, the change in vivo at 25 mg/kg under setting [1] stood at 50%. Moreover, the change in vivo at 50 mg/kg under setting [2] was 170%. Also, the change in vivo at 50 mg/kg under setting [3] is 20%. For the same molecule, under setting [4], the change in vivo at 25 mg/kg was 250%. The change in vivo at 50 mg/kg under setting [12] turned out to be 700%.
Regarding `N[C@@H](Cc1c[nH]c2ccc(O)cc12)C(=O)N[C@@H](CC(=O)O)C(=O)O.O.O.O` [Example 2, 5-Hydroxy-L-tryptophyl-L-aspartic acid trihydrate] (H-[Trp(5-OH)]-Asp-OH), the change in vivo at 10 mg/kg came to 200%. Further, the change in vivo at 50 mg/kg under setting [3] is 10%. Moreover, the change in vivo at 25 mg/kg under setting [4] was determined as 600%. Further, the change in vivo at 50 mg/kg under setting [12] was determined as 1000%. Besides, the “%, relative to the controls, of 5-HT at dose of 10 mg/kg” value under setting [5] is reported as 5%. Further, the “%, relative to the controls, of 5-HT at dose of 25 mg/kg” value under setting [8] worked out at 5%.
Turning to “5-Hydroxy-L-tryptophyl-γ-aminobutyric acid [Example 20]”, under setting [5], the “%, relative to the controls, of 5-HIAA at dose of 10 mg/kg” value is 40%; the “%, relative to the controls, of 5-HT at dose of 10 mg/kg” value worked out at 5%; the “%, relative to the controls, of L-5-HTP at dose of 10 mg/kg” value was 60%. In addition, under setting [8], the “%, relative to the controls, of 5-HIAA at dose of 25 mg/kg” value worked out at 100%; the “%, relative to the controls, of 5-HT at dose of 25 mg/kg” value turned out to be 5%; the “%, relative to the controls, of L-5-HTP at dose of 25 mg/kg” value was determined as 200%. Under setting [13], the “%, relative to the controls, of 5-HIAA at dose of 50 mg/kg” value was found to be 150%; the “%, relative to the controls, of 5-HT at dose of 50 mg/kg” value was determined as 15%; the “%, relative to the controls, of L-5-HTP at dose of 50 mg/kg” value is on record as 400%.
`N=C(N)NCCC[C@H](NC(=O)[C@@H](N)Cc1c[nH]c2ccc(O)cc12)C(=O)O` [Example 18, 5-Hydroxy-L-tryptophyl-L-arginine] (H-[Trp(5-OH)]-Arg-OH): the change in vivo at 10 mg/kg under setting [5] came out at 100%. Further, the change in vivo at 25 mg/kg runs as follows: under setting [9], 15%; under setting [6], 300%. Also, the change in vivo at 50 mg/kg reads like this: under setting [10], 15%; under setting [7], 30%; under setting [11], 500%. The “%, relative to the controls, of 5-HIAA at dose of 10 mg/kg” value under setting [5] is on record as 10%. Also, the “%, relative to the controls, of 5-HT at dose of 10 mg/kg” value under setting [5] is listed as 12%. In addition, the “%, relative to the controls, of 5-HT at dose of 25 mg/kg” value under setting [8] was 30%.
Consider `N[C@@H](Cc1c[nH]c2ccc(O)cc12)C(=O)N1CCC[C@H]1C(=O)O` [Example 11, 5-HYDROXY-L-TRYPTOPHYL-L-PROLINE] (H-[Trp(5-OH)]-Pro-OH), for which, under setting [5], the change in vivo at 10 mg/kg was 200%. The change in vivo at 25 mg/kg under setting [9] was 150% and the change in vivo at 25 mg/kg under setting [6] stood at 700%. Moreover, the change in vivo at 50 mg/kg is, setting by setting: under setting [10], 300%; under setting [7], 20%. Further, under setting [5], the “%, relative to the controls, of 5-HT at dose of 10 mg/kg” value is 10%.
Regarding `COC(=O)[C@H](Cc1ccc(O)cc1)NC(=O)[C@@H](N)Cc1c[nH]c2ccc(O)cc12.Cl` [Example 5, Methyl ester of 5-hydroxy-L-tryptophyl-L-tyrosine hydrochloride] (H-[Trp(5-OH)]-Tyr-OMe), under setting [5], the “%, relative to the controls, of 5-HIAA at dose of 10 mg/kg” value is 55%; the “%, relative to the controls, of 5-HT at dose of 10 mg/kg” value was 12%; the “%, relative to the controls, of L-5-HTP at dose of 10 mg/kg” value is reported as 200%. Moreover, under setting [8], the “%, relative to the controls, of 5-HIAA at dose of 25 mg/kg” value stood at 160%; the “%, relative to the controls, of 5-HT at dose of 25 mg/kg” value is 10%; the “%, relative to the controls, of L-5-HTP at dose of 25 mg/kg” value was 450%. In addition, under setting [13], the “%, relative to the controls, of 5-HIAA at dose of 50 mg/kg” value is reported as 170%; the “%, relative to the controls, of 5-HT at dose of 50 mg/kg” value is recorded as 40%; the “%, relative to the controls, of L-5-HTP at dose of 50 mg/kg” value is recorded as 1200%.
Turning to `CC(C)C[C@H](NC(=O)[C@@H](N)Cc1c[nH]c2ccc(O)cc12)C(=O)O` [Example 10, 5-HYDROXY-L-TRYPTOPHYL-L-LEUCINE] (H-[Trp(5-OH)]-Leu-OH), the change in vivo at 10 mg/kg under setting [5] came to 200%. Further, the change in vivo at 25 mg/kg came to 100% under setting [9] and 600% under setting [6]. Further, the change in vivo at 50 mg/kg is, setting by setting: under setting [10], 350%; under setting [7], 45%. The “%, relative to the controls, of 5-HIAA at dose of 10 mg/kg” value under setting [5] is on record as 55%. Moreover, the “%, relative to the controls, of 5-HT at dose of 25 mg/kg” value under setting [8] amounted to 12%.
`COC(=O)[C@H](Cc1c[nH]cn1)NC(=O)[C@@H](N)Cc1c[nH]c2ccc(O)cc12` [Example 22, METHYL ESTER OF 5-HYDROXY-L-TRYPTOPHYL-L-HISTIDINE] (H-[Trp(5-OH)]-His-OMe): the “%, relative to the controls, of 5-HIAA at dose of 10 mg/kg” value under setting [5] turned out to be 40%. Besides, under setting [8], the “%, relative to the controls, of 5-HIAA at dose of 25 mg/kg” value was 140%; the “%, relative to the controls, of 5-HT at dose of 25 mg/kg” value was found to be 15%; the “%, relative to the controls, of L-5-HTP at dose of 25 mg/kg” value is listed as 200%. Under setting [13], the “%, relative to the controls, of 5-HIAA at dose of 50 mg/kg” value was determined as 300%; the “%, relative to the controls, of 5-HT at dose of 50 mg/kg” value was 15%; the “%, relative to the controls, of L-5-HTP at dose of 50 mg/kg” value is 300%.
Regarding `NC(=O)[C@@H](N)Cc1c[nH]c2ccc(O)cc12.O` [Example 21, 5-HYDROXY-L-TRYPT[…]], under setting [5], the “%, relative to the controls, of 5-HIAA at dose of 10 mg/kg” value amounted to 30%.
As to `COC(=O)[C@H](Cc1ccc(O)cc1)NC(=O)[C@H](Cc1c[nH]c2ccc(O)cc12)NC(C)=O` [Example 6, Methyl ester of N-acetyl-5-hydroxy-L-tryptophyl-L-tyrosine] (Ac-[Trp(5-OH)]-Tyr-OMe), the “%, relative to the controls, of 5-HT at dose of 25 mg/kg” value under setting [8] is given as 5%. The “%, relative to the controls, of 5-HT at dose of 50 mg/kg” value under setting [13] is recorded as 5%.
